Reference: patent publication US9745328B2, “Flap modulators” (JANSSEN PHARMACEUTICA NV, priority 2013, dated 2017)
Structures can show the parent of a compound that is named as a salt.

Biological target: human FLAP (Homo sapiens (Human), UniProt P20292)
Experiment: FLAP binding assay (HTRF format)
Conditions: Table 6 (additional runs), human FLAP wild type
Description: The ability of the compounds of the present invention to treat a FLAP-mediated disease and/or disorder, or associated symptoms or complications thereof, was determined using the following procedures. Binding assay data represent the average value obtained from two different assay plates, with samples run in duplicate on each plate. Human whole blood assay data represent a single replicate on an assay plate using whole blood from at least one healthy donor.
Data are expressed as a HTRF ratio.

Sequence of human FLAP (P20292 whole entry): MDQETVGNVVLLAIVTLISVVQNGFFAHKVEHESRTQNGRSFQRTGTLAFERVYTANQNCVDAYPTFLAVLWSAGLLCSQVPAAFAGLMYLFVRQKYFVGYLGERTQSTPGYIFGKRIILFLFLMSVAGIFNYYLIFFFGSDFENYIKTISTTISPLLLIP

Compound	Ki [nM]
Nc1cnc(-c2ccc(-c3ccccc3NS(=O)(=O)C3CC3)cc2F)cn1 [Example 38, N-(4′-(5-aminopyrazin-2-yl)-3′-fluoro-[1,1′-biphenyl]-2-yl)cyclopropanesulfonamide]	28.8
CC(C)(CO)CNS(=O)(=O)c1ccccc1-c1ccc(-c2cnc(N)cn2)c(F)c1 [Example 103, 4′-(5-Aminopyrazin-2-yl)-3′-fluoro-N-(3-hydroxy-2,2-dimethylpropyl)biphenyl-2-sulfonamide]	0.3
Nc1cnc(-c2ccc(-c3ccccc3S(=O)(=O)N[C@H]3CC[C@H](O)CC3)cc2F)cn1 [Example 110, trans 4′-(5-Aminopyrazin-2-yl)-3′-fluoro-N-(4-hydroxycyclohexyl)biphenyl-2-sulfonamide]	2.6
CC(C)(C)OC(=O)N1CC(O)(CNS(=O)(=O)c2ccccc2-c2ccc(-c3ccc(N)nc3)c(F)c2)C1 [Example 357, tert-butyl 3-((4′-(6-aminopyridin-3-yl)-3′-fluoro-[1,1′-biphenyl]-2-ylsulfonamido)methyl)-3-hydroxyazetidine-1-carboxylate]	114
Nc1cnc(-c2ccc(-c3ccccc3CSc3ccc(N)nn3)cc2F)cn1 [Example 240, 6-(((4′-(5-aminopyrazin-2-yl)-3′-fluoro-[1,1′-biphenyl]-2-yl)methyl)thio)pyridazin-3-amine hydrochloride]	2.4
Nc1cnc(-c2ccc(-c3ccccc3S(=O)(=O)N[C@H]3CCCNC3=O)cc2F)cn1 [Example 108, (S)-4′-(5-aminopyrazin-2-yl)-3′-fluoro-N-(2-oxopiperidin-3-yl)-[1,1′-biphenyl]-2-sulfonamide]	9.5
Nc1cnc(-c2ccc(-c3ccccc3S(=O)(=O)N3CCC(O)(C(F)(F)F)CC3)cc2F)cn1 [Example 55, 1-{[4′-(5-Aminopyrazin-2-yl)-3′-fluorobiphenyl-2-yl]sulfonyl}-4-(trifluoromethyl)piperidin-4-ol]	1.1
C[C@@H](CO)NS(=O)(=O)c1ccccc1-c1ccc(-c2cnc3c(c2)OCCN3)c(F)c1 [Example 388, 4′-(3,4-Dihydro-2H-pyrido[3,2-b]l[1,4]oxazin-7-yl)-3′-fluoro-N-[(1S)-2-hydroxy-1-methylethyl]biphenyl-2-sulfonamide]	1.7
Nc1cnc(-c2ccc(-c3ccccc3S(=O)(=O)N3CCCCCC3)cc2F)cn1 [Example 53, 5-[2′-(Azepan-1-ylsulfonyl)-3-fluorobiphenyl-4-yl]pyrazin-2-amine]	3.3
CCCS(=O)(=O)c1ccccc1-c1ccc(-c2cnc(N)cn2)c(F)c1 [Example 192, 5-[3-Fluoro-2′-(propylsulfonyl)biphenyl-4-yl]pyrazin-2-amine]	48.3
Nc1cnc(-c2ccc(-c3ccccc3S(=O)(=O)N3CC[C@@H](O)C3)cc2F)cn1 [Example 185, (3R)-1-{[4′-(5-Aminopyrazin-2-yl)-3′-fluoroblphenyl-2-yl]sulfonyl}pyrrolidin-3-ol]	9.5
CC(CO)(CO)NS(=O)(=O)c1ccccc1-c1ccc(-c2cnc(N)cn2)c(F)c1 [Example 147, 4′-(5-Aminopyrazin-2-yl)-3′-fluora-N-[2-hydroxy-1-(hydroxymethyl)-1-methylethyl]piphenyl-2-sulfonamide]	0.6
CCN1CCCC[C@@H](NS(=O)(=O)c2ccccc2-c2ccc(-c3cnc(N)cn3)c(F)c2)C1=O [Example 27]	26.3
Nc1ccc(-c2ccc(-c3ccccc3S(=O)(=O)NC3CCCCC3)cc2F)cn1 [Example 346, 4′-(6-Aminopyridin-3-yl)-N-cyclohexyl-3′-fluoro-[1,1′-biphenyl]-2-sulfonamide]	4.5
CC(CO)NS(=O)(=O)c1ccccc1-c1ccc(-c2cnc3[nH]ccc3n2)c(F)c1 (stereo in doubt) [Example 380, 3′-Fluoro-N-[(1S)-2-hydroxy-1-methylethyl]4′-(5H-pyrrolo[2,3-b]pyrazin-2-yl)biphenyl-2-sulfonamide]	1.1
Nc1cnc(-c2ccc(-c3ccccc3S(=O)(=O)N3CC(O)C3)cc2F)cn1 [Example 119, 1-{[4′-(5-Aminopyrazin-2-yl)-3′-fluorobiphenyl-2-yl]sulfonyl}azetidin-3-ol]	2.7
Nc1cnc(-c2ccc(-c3ccccc3S(=O)(=O)N[C@H](CO)c3ccccc3)cc2F)cn1 [Example 81, 4′-(5-Aminopyrazin-2-yl)-3′-fluoro-N-[(1S)-2-hydroxy-1-phenylethyl]biphenyl-2-sulfonamide]	6.4
C[C@@H](O)CNS(=O)(=O)c1ccccc1-c1ccc(-c2cnc(N)cn2)c(F)c1 [Example 97, (R)-4′-(5-aminopyrazin-2-yl)-3′-fluoro-N-(2-hydroxypropyl)-[1,1′-biphenyl]-2-sulfonamide]	6.6

Now from value to compound:

Ki [nM]	Compound
185	Nc1ncc(-c2ccc(-c3ccccc3S(=O)(=O)N[C@H]3CCCNC3=O)cc2F)cn1 [Example 267, 4′-(2-Aminopyrimidin-5-yl)-3′-fluoro-N-[(3S)-2-oxopiperidin-3-yl]biphenyl-2-sulfonamide trifluoroacetic acid salt]
1.8	CC(C)(O)CNS(=O)(=O)c1ccccc1-c1ccc(-c2cnc(N)cn2)c(F)c1 [Example 101, 4′-(5-Aminopyrazin-2-yl)-3′-fluoro-N-(2-hydroxy-2-methylpropyl)biphenyl-2-sulfonamide]
354	CS(=O)(=O)NS(=O)(=O)c1ccccc1-c1ccc(-c2cnc(N)cn2)c(F)c1 [Example 96, 4′-(5-Aminopyrazin-2-yl)-3′-fluoro-N-(methylsulfonyl)biphenyl-2-sulfonamide]
56.8	CC[C@@H](CO)NS(=O)(=O)c1ccccc1-c1ccc(-c2cnc(N)nc2)c(F)c1 [Example 248, 4′-(2-Aminopyrimidin-5-yl)-3′-fluoro-N-[(1S)-1-(hydroxymethyl)propyl]biphenyl-2-sulfonamide]
20	CCNS(=O)(=O)c1ccccc1-c1ccc(-c2cnc(N)nc2)c(F)c1 [Example 295, 4′-(2-Aminopyrimidin-5-yl)-N-ethyl-3′-fluorobiphenyl-2-sulfonamide trifluoroacetic acid salt]
3.3	CC(C)(CO)NS(=O)(=O)c1ccccc1-c1ccc(-c2cnc(N)nc2)c(F)c1 [Example 280, 4′-(2-.Aminopyrimidin-5-yl)-3′-fluoro-N-(2-hydroxy-1,1-dimethylethyl)biphenyl-2-sulfonamide trifluoroacetic acid salt]
2.4	CC(C)(NS(=O)(=O)c1ccccc1-c1ccc(-c2ccc(N)nc2)c(F)c1)C(F)(F)F [Example 350, 4′-(6-aminopyridin-3-yl)-3′-fluoro-N-(1,1,1-trifluoro-2-methylpropan-2-yl)-[1,1′-biphenyl]-2-sulfonamide]
1.8	CCNS(=O)(=O)c1cc(C(F)(F)F)ccc1-c1ccc(-c2cnc(N)nc2)c(F)c1 [Example 327]
4.7	CNS(=O)(=O)c1cc(C(F)(F)F)ccc1-c1ccc(-c2cnc(N)nc2)c(F)c1 [Example 325, 4′-(2-aminopyrimidin-5-yl)-3′-fluoro-N-methyl-4-(trifluoromethyl)biphenyl-2-sulfonamide]
3.2	C[C@H](NS(=O)(=O)c1ccccc1-c1ccc(-c2cnc(N)nc2)c(F)c1)C(F)(F)F [Example 297, 4′-(2-Aminopyrimidin-5-yl)-3′-fluoro-N-[(1S)-2,2,2-trifluoro-1-methylethyl]biphenyl-2-sulfonamide trifluoroacetic acid salt]
0.5	CCNS(=O)(=O)c1cc(C(F)(F)F)ccc1-c1ccc(-c2cnc(N)cn2)c(F)c1 [Example 211, 4′-(5-Aminopyrazin-2-yl)-N-ethyl-3′-fluoro-4-(trifluoromethyl)biphenyl-2-sulfonamide]
1.3	Nc1ncc(-c2ccc(-c3ccccc3S(=O)(=O)N3CC(O)(C(F)(F)F)C3)cc2F)cn1 [Example 315]

Same assay, conditions: human FLAP wild type, Table 6 (additional runs)

Compound	Ki [nM]
Nc1nc(-c2ccc(-c3ccccc3S(=O)(=O)N3CCCC3)cc2F)cs1 [Example 579, 4-[3-Fluoro-2′-(pyrrolidin-1-ylsulfonyl)biphenyl-4-yl]-1,3-thiazol-2-amine]	95.1
Nc1ncc(-c2ccc(-c3cccnc3OC3CCS(=O)(=O)CC3)cc2F)cn1 [Example 648, 5-(4-{2-[(1,1-Dioxidotetranydro-2H-thiopyran-4-yl)oxy]pyridin-3-yl}-2-fluorophenyl)pyrimidin-2-amine]	834
Nc1cnc(-c2ccc(-c3cccnc3OC3CCCCC3)cc2F)cn1 [Example 403, 5-{4-[2-(Cyclohexyloxy)pyridin-3-yl]-2-fluorophenyl}pyrazin-2-amine]	69.8
CC(C)(C)NS(=O)(=O)c1ccccc1-c1ccc(-c2ccc3[nH]ccc3c2)c(F)c1 [Example 421, N-tert-Butyl-3′-fluoro-4′-(1H-indol-5-yl)biphenyl-2-sulfonamide]	28.3

Continued, values first:

Ki [nM]	Compound
0.4	Nc1cnc(-c2ccc(-c3ccc(C(F)(F)F)cc3Oc3ncccn3)cc2F)cn1 [Example 551, 5-[3-Fluoro-2′-(pyrimidin-2-yloxy)-4′-(trifluoromethyl)biphenyl-4-yl]pyrazin-2-amine]
1.5	Nc1ccnc(Oc2cc(C(F)(F)F)ccc2-c2ccc(-c3cnc(N)nc3)c(F)c2)n1 [Example 559, 5-{2′-[(4-Aminopyrimidin-2-yl)oxy]-3-fluoro-4′-(trifluoromethyl)biphenyl-4-yl}pyrimidin-2-amine]
5.5	Nc1ncc(-c2ccc(-c3ccc(C(F)(F)F)cc3Oc3ncccn3)cc2F)cn1 [Example 552, 5-[3-Fluoro-2′-(pyrimidin-2-yloxy)-4′-(trifluoromethyl)biphenyl-4-yl]pyrimidin-2-amine]
53.5	Nc1cnc(-c2ccc(-c3ccc(OC(F)(F)F)cc3F)cc2F)cn1 [Example 467, 5-[2′,3-Difluoro-4′-(trifluoromethoxy)biphenyl-4-yl]pyrazin-2-amine]
19.6	CS(=O)(=O)c1cc(F)ccc1-c1ccc(-c2cnc3[nH]ccc3n2)c(F)c1 [Example 489, 2-[3,4′-Difluoro-2′-(methylsulfonyl)biphenyl-4-yl]-5H-pyrrolo[2,3-b]pyrazine]

Same assay, conditions: human FLAP wild type, a calculated value of 0.000 indicates Ki less than 1 nM

Ki [nM]	Compound
< 1	Nc1cnc(-c2ccc(-c3ccc(C(F)(F)F)cc3Oc3ncccn3)cc2F)cn1 [Example 551, 5-[3-Fluoro-2′-(pyrimidin-2-yloxy)-4′-(trifluoromethyl)biphenyl-4-yl]pyrazin-2-amine]
< 1	CC(C)(CO)CNS(=O)(=O)c1ccccc1-c1ccc(-c2cnc(N)cn2)c(F)c1 [Example 103, 4′-(5-Aminopyrazin-2-yl)-3′-fluoro-N-(3-hydroxy-2,2-dimethylpropyl)biphenyl-2-sulfonamide]
